Earlier results as cited in patent US20140090255A1, “Skin Engaging Member Comprising At Least One Thermally Resilient Sensate” (The Gillette Company, priority 2012, published 2014).

Settings: concentration where the cooling effect could be clearly recognized; Emberger and Hopp 1987

Row | SMILES | cooling threshold
1 | CC(C)[C@@H]1CC[C@@H](C)C[C@@H]1O [Example 1-neomenthol, 1-neomenthol] | about 3,000 ppb
2 | CC(C)[C@@H]1CC[C@@H](C)C[C@H]1O [L-menthol] | about 800 ppb
3 | CC(C)[C@@H]1CC[C@@H](C)C[C@@H]1O [d-neomenthol] | about 25,000 ppb
